How the values were obtained:
human EAAT3 = molecular target: T1, human EAAT3 (Homo sapiens, UniProt P43005); assay: FLIPR Membrane Potential (FMP) assay, antagonist potency at human EAAT3; type: cell-based; settings: HEK-293 cells stably expressing human EAAT3; L-glutamate as agonist at EC80; antagonist applied 15 min before agonist; Kb by Cheng-Prusoff from IC50
T1 construct: expressed in transfected cells
T1 sequence (P43005 1-524): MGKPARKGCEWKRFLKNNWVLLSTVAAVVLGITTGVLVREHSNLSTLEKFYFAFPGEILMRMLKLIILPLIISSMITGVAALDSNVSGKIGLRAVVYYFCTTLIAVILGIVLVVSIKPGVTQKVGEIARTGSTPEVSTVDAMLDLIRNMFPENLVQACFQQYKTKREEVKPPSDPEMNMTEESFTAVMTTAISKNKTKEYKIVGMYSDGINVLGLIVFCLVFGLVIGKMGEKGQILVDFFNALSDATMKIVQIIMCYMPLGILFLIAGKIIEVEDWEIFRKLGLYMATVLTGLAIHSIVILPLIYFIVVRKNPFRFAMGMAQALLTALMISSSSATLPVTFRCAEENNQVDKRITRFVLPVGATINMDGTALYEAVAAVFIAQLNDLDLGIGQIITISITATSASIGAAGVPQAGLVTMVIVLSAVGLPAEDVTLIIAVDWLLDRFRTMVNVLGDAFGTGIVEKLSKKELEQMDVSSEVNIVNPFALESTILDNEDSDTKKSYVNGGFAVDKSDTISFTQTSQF
Experimental: The FLIPR Membrane Potential (FMP) Assay
HEK-293 cells stably expressing human EAAT3 were seeded at 55 000 cells/well in growth medium (DMEM glutamate free (Invitrogen 11960-044), 1% Pen Strep (10 ml/1 GIBCO BRL N°15140-023), 10% FCS non dialysed heat inactivated, 5 mg/l puromycin) in poly-D-lysine treated 96-well black microtiter plates with clear-bottom. After 24 h, the growth medium was removed and 100 μl/well of Krebs buffer (140 mM NaCl, 4.7 mM KCl, 2.5 mM CaCl2, 1.2 mM MgCl2, 11 mM HEPES, 10 mM D-glucose, pH=7.4) added. The cells were then loaded by adding 100 μl/well FMP assay dye (FLIPR Membrane Potential assay reagent, Molecular Devices). The 96-well plates were then incubated at 37° C. for 1 h. The depolarization of the cells will cause more dye to enter in the cells, where it will bind to intracellular proteins and lipids and cause an increase in the fluorescence signal. Antagonist potency at human EAAT3 was determined by using L-glutamate as agonist at a concentration which gives 80% of the maximum response. The antagonists were applied 15 min before the application of the agonist L-glutamate. The assays were performed at room temperature and measurements done by using a Fluorometric Imaging Plate Reader (FLIPR, Molecular Devices) and filter #2. Responses were measured as peak increase in fluorescence minus basal (i.e. fluorescence without addition of L-glutamate). Kb was determined using the Cheng-Prusoff equation Kb=IC50/[1+(A/EC50)], where IC50 is the concentration of the antagonist producing 50% inhibition, A is the concentration of the agonist against which the IC50 is being determined (at EC80) and EC50 is the concentration of the agonist producing 50% […].

Row | melting point | Kb (human EAAT3) | SMILES
1 | 112 °C | 220 nM | CC(C)c1nccn1-c1cc(C(=O)NC2(C)CCS(=O)(=O)C2)cc(-c2ccc(Cl)cc2)c1 (racemic) [Example 38, (RS)-3-(4-Chlorophenyl)-N-(3-methyl-1,1-dioxothiolan-3-yl)-5-(2-propan-2-ylimidazol-1-yl)-benzamide]
2 | 115 °C | 180 nM | CC1(NC(=O)c2cc(-c3ccc(Cl)cc3)cc(-n3ccnc3C3CC3)c2)CCS(=O)(=O)C1 (racemic) [Example 39, (RS)-3-(4-chlorophenyl)-5-(2-cyclopropylimidazol-1-yl)-N-(3-methyl-1,1-dioxothiolan-3-yl)-benzamide]
3 | – | 180 nM | CC(C)c1nccn1-c1cc(C(=O)NC(C)(C)C)cc(-c2ccc(Cl)cc2)c1 [Example 1, N-tert-Butyl-3-(4-chlorophenyl)-5-(2-propan-2-ylimidazol-1-yl)-benzamide]
4 | – | 230 nM | CC(C)(C)NC(=O)c1cc(-c2ccc(Cl)cc2)cc(-n2ccnc2)c1 [Example 2, N-tert-Butyl-3-(4-chlorophenyl)-5-imidazol-1-ylbenzamide]
5 | 220 °C | 190 nM | Cc1nccn1-c1cc(C(=O)NC(C)(C)C)cc(-c2ccc(Cl)cc2)c1 [Example 3, N-tert-Butyl-3-(4-chlorophenyl)-5-(2-methylimidazol-1-yl)-benzamide]
6 | – | 180 nM | CCc1nccn1-c1cc(C(=O)NC(C)(C)C)cc(-c2ccc(Cl)cc2)c1 [Example 4, N-tert-Butyl-3-(4-chlorophenyl)-5-(2-ethylimidazol-1-yl)-benzamide]
7 | – | 120 nM | CC(C)(C)NC(=O)c1cc(-c2ccc(Cl)cc2)cc(-n2ccnc2C2CC2)c1 [Example 5, N-tert-Butyl-3-(4-chlorophenyl)-5-(2-cyclopropylimidazol-1-yl)-benzamide]
8 | 224 °C | 76 nM | CC(C)c1nccn1-c1cc(C(=O)NC(C)(C)C)cc(-c2ccc(F)cc2)c1 [Example 6, N-tert-Butyl-3-(4-fluorophenyl)-5-(2-propan-2-ylimidazol-1-yl)-benzamide]
9 | 115.5 °C | 200 nM | CC(C)c1nccn1-c1cc(C(=O)NC(C)(C)C(F)(F)F)cc(-c2ccc(Cl)cc2)c1 [Example 7, 3-(4-Chlorophenyl)-5-(2-propan-2-ylimidazol-1-yl)-N-(1,1,1-trifluoro-2-methylpropan-2-yl)-benzamide]
10 | 189 °C | 230 nM | CC(C)c1nccn1-c1cc(C(=O)NC(C)(C)C2CC2)cc(-c2ccc(Cl)cc2)c1 [Example 8, 3-(4-Chlorophenyl)-N-(2-cyclopropylpropan-2-yl)-5-(2-propan-2-ylimidazol-1-yl)-benzamide]
11 | 183 °C | 220 nM | CCc1nccn1-c1cc(C(=O)NC(C)(C)C2CC2)cc(-c2ccc(Cl)cc2)c1 [Example 9, 3-(4-Chlorophenyl)-N-(2-cyclopropylpropan-2-yl)-5-(2-ethylimidazol-1-yl)-benzamide]
12 | 238 °C | 110 nM | CCc1nccn1-c1cc(C(=O)NC(C)(C)C)cc(-c2ccc(F)cc2)c1 [Example 10, N-tert-Butyl-3-(2-ethylimidazol-1-yl)-5-(4-fluorophenyl)-benzamide]
13 | 180 °C | 170 nM | Cc1nccn1-c1cc(C(=O)NC(C)(C)C2CC2)cc(-c2ccc(Cl)cc2)c1 [Example 11, 3-(4-Chlorophenyl)-N-(2-cyclopropylpropan-2-yl)-5-(2-methylimidazol-1-yl)-benzamide]
14 | 208 °C | 130 nM | Cc1nccn1-c1cc(C(=O)NC(C)(C)C)cc(-c2ccc(F)cc2)c1 [Example 12, N-tert-Butyl-3-(4-fluorophenyl)-5-(2-methylimidazol-1-yl)-benzamide]
15 | 90 °C | 310 nM | CC(C)(NC(=O)c1cc(-c2ccc(Cl)cc2)cc(-n2ccnc2C2CC2)c1)C1CC1 [Example 13, 3-(4-Chlorophenyl)-5-(2-cyclopropylimidazol-1-yl)-N-(2-cyclopropyl-propan-2-yl)-benzamide]
16 | 199.5 °C | 130 nM | Cc1nccn1-c1cc(C(=O)NC(C)(C)C(F)(F)F)cc(-c2ccc(Cl)cc2)c1 [Example 14, 3-(4-Chlorophenyl)-5-(2-methylimidazol-1-yl)-N-(1,1,1-trifluoro-2-methylpropan-2-yl)-benzamide]
17 | 101.5 °C | 150 nM | CC(C)(NC(=O)c1cc(-c2ccc(Cl)cc2)cc(-n2ccnc2C2CC2)c1)C(F)(F)F [Example 15, 3-(4-Chlorophenyl)-5-(2-cyclopropylimidazol-1-yl)-N-(1,1,1-trifluoro-2-methylpropan-2-yl)-benzamide]
18 | 250.5 °C | 130 nM | CC(C)(C)NC(=O)c1cc(-c2ccc(F)cc2)cc(-n2ccnc2C2CC2)c1 [Example 16, N-tert-Butyl-3-(2-cyclopropylimidazol-1-yl)-5-(4-fluorophenyl)-benzamide]
19 | 80 °C | 120 nM | CC(C)c1nccn1-c1cc(C(=O)NC(C)(C)C2CC2)cc(-c2ccc(F)cc2)c1 [Example 17, N-(2-Cyclopropylpropan-2-yl)-3-(4-fluorophenyl)-5-(2-propan-2-ylimidazol-1-yl)-benzamide]
20 | 70 °C | 170 nM | CCc1nccn1-c1cc(C(=O)NC(C)(C)C2CC2)cc(-c2ccc(F)cc2)c1 [Example 18, N-(2-Cyclopropylpropan-2-yl)-3-(2-ethylimidazol-1-yl)-5-(4-fluorophenyl)-benzamide]
21 | 184 °C | 290 nM | Cc1nccn1-c1cc(C(=O)NC(C)(C)C2CC2)cc(-c2ccc(F)cc2)c1 [Example 19, N-(2-Cyclopropylpropan-2-yl)-3-(4-fluorophenyl)-5-(2-methylimidazol-1-yl)-benzamide]
22 | 83 °C | 33 nM | CC(C)(NC(=O)c1cc(-c2ccc(F)cc2)cc(-n2ccnc2C2CC2)c1)C1CC1 [Example 20, 3-(2-Cyclopropylimidazol-1-yl)-N-(2-cyclopropylpropan-2-yl)-5-(4-fluorophenyl)-benzamide]
23 | 96.5 °C | 180 nM | CC(C)c1nccn1-c1cc(C(=O)NC(C)(C)C)cc(-c2ccc(C(F)(F)F)cc2)c1 [Example 21, N-tert-Butyl-3-(2-propan-2-ylimidazol-1-yl)-5-[4-(trifluoromethyl)-phenyl]-benzamide]
24 | 98 °C | 120 nM | Cc1ccc(-c2cc(C(=O)NC(C)(C)C)cc(-n3ccnc3C(C)C)c2)cc1F [Example 22, N-tert-Butyl-3-(3-fluoro-4-methylphenyl)-5-(2-propan-2-ylimidazol-1-yl)-benzamide]
25 | 91.5 °C | 150 nM | CC(C)c1nccn1-c1cc(C(=O)NC(C)(C)C)cc(-c2ccc(F)c(F)c2)c1 [Example 23, N-tert-Butyl-3-(3,4-difluorophenyl)-5-(2-propan-2-ylimidazol-1-yl)-benzamide]
26 | 98 °C | 190 nM | CC(C)c1nccn1-c1cc(C(=O)NC(C)(C)C)cc(-c2ccc(Cl)c(F)c2)c1 [Example 24, N-tert-Butyl-3-(4-chloro-3-fluorophenyl)-5-(2-propan-2-ylimidazol-1-yl)-benzamide]

— patent publication US10029989B2, “Imidazole derivatives” (Hoffmann-La Roche Inc., priority 2015, dated 2018)
